Literature values in article PMC9851200, “Multiparameter phenotypic screening for endogenous TFEB and TFE3 translocation identifies novel chemical series modulating lysosome function” (Autophagy, 2022).

Columns and labels:
Design in all cases: method as in original PKIS2 published data
[1] = molecular target: T1, kinases (KINOMEscan panel) (Homo sapiens, UniProt Q13976); conditions: kinase PRKG1; Published KINOMEscan; ref original PKIS2 published data; cited from earlier work
T1 sequence (Q13976 1-671): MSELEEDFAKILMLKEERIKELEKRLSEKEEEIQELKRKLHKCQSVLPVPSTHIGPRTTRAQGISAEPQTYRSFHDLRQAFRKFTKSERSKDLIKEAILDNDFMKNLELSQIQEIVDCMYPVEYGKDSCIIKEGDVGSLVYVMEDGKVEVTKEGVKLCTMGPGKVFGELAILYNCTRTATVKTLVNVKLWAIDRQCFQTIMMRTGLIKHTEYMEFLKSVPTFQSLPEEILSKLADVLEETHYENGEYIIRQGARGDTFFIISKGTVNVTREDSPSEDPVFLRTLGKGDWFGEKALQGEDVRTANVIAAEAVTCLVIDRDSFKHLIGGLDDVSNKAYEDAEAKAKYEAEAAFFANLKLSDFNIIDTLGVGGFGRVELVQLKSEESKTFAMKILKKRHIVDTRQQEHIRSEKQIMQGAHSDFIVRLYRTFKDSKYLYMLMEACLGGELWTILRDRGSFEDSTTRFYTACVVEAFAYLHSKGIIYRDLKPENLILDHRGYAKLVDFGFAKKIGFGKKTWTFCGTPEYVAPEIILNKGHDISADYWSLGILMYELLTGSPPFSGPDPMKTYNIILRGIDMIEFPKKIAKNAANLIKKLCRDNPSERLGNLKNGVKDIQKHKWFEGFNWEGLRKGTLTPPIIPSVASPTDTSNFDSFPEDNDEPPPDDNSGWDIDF

[2] = molecular target: kinases (KINOMEscan panel) (Homo sapiens, UniProt Q16513); conditions: kinase PKN2; Published KINOMEscan; ref original PKIS2 published data; cited from earlier work
Chain of kinases (KINOMEscan panel) (Homo sapiens, UniProt Q16513) (Q16513 whole entry): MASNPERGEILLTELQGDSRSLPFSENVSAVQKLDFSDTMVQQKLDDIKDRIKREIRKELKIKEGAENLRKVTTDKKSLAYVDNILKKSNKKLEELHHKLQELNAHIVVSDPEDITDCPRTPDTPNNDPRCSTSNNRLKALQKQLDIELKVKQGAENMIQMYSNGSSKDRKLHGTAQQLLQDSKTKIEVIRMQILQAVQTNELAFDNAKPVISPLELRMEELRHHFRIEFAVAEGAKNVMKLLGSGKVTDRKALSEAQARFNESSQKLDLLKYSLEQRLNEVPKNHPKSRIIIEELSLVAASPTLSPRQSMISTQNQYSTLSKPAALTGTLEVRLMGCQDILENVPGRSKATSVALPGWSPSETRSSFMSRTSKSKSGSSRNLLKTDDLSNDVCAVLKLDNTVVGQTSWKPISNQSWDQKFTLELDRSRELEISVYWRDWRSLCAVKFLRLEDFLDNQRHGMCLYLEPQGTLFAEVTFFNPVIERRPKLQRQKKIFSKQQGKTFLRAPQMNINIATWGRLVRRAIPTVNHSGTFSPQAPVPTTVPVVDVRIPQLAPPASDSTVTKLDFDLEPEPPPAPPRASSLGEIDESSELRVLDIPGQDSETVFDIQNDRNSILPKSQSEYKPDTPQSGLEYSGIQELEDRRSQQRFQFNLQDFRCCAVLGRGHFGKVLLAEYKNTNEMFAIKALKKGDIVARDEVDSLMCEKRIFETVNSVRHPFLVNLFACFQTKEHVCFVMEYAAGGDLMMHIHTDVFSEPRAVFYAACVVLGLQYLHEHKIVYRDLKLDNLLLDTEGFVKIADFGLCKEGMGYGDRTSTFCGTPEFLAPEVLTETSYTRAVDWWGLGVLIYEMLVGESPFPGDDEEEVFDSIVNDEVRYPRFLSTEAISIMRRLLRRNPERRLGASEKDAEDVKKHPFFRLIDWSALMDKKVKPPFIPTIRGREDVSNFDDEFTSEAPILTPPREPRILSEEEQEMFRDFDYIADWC

[3] = molecular target: T2, kinases (KINOMEscan panel) (Homo sapiens, UniProt Q9UKI8); conditions: kinase TLK1; Published KINOMEscan; ref original PKIS2 published data; cited from earlier work
T2 sequence (Q9UKI8 1-766): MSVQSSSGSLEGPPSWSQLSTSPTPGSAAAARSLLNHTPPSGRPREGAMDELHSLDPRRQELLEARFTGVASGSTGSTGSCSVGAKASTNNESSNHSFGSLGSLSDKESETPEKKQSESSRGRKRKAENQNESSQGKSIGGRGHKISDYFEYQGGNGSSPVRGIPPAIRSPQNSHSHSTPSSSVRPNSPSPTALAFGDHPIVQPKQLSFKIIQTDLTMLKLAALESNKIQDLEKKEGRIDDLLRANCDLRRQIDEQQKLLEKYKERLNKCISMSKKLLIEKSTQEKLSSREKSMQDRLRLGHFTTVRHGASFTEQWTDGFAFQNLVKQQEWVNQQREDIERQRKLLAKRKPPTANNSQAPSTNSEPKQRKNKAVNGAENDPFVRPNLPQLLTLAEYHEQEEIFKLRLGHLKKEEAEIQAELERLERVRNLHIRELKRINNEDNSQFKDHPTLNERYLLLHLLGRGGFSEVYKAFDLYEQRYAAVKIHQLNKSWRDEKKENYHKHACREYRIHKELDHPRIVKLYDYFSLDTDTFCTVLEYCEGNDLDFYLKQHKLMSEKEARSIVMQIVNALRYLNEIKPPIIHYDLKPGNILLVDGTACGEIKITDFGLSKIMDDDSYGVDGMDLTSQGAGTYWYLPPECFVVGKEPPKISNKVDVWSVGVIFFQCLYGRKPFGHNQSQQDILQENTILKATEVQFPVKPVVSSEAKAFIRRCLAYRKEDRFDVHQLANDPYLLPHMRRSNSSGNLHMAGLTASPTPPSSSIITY

[4] = molecular target: T3, kinases (KINOMEscan panel) (Homo sapiens, UniProt Q16832); conditions: DDR2; Published KINOMEscan; ref original PKIS2 published data; cited from earlier work
T3 sequence (Q16832 22-855): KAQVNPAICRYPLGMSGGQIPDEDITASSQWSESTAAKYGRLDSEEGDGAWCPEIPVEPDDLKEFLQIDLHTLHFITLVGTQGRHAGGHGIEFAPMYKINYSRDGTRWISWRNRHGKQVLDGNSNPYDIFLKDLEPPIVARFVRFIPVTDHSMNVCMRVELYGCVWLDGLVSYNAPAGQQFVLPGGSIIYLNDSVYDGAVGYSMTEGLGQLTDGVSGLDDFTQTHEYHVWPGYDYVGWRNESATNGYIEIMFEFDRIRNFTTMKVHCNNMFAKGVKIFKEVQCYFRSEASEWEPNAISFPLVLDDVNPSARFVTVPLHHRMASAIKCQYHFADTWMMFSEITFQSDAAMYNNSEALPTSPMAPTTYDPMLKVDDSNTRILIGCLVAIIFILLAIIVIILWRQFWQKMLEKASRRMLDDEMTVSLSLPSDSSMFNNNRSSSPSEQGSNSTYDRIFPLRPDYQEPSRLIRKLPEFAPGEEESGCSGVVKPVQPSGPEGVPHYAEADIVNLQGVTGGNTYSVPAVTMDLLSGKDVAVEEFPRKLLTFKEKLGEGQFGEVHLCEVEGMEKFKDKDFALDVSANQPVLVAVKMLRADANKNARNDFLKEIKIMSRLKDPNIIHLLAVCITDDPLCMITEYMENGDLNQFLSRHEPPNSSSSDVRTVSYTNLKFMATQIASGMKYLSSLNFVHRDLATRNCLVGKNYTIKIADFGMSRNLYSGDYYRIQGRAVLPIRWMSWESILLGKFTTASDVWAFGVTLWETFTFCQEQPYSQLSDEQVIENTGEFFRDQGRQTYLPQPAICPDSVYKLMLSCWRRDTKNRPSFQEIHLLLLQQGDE

Question: Which “KINOMEscan PRKG1” value [1] does the source give for `Cc1cccc(-c2nc(Nc3ccncc3)c3ccccc3n2)n1` [NK215] here?
Answer: 7

Question: And the “KINOMEscan PKN2” value [2]?
Answer: 0

Question: And the “KINOMEscan TLK1” value [3]?
Answer: 0

Question: And the “KINOMEscan DDR2” value [4]?
Answer: 45
